Values joined by “and” are separate entries in the source; they are usually repeats but may differ in a detail not shown here. Equal values may be shown once. Marks after values point to notes of the source that are not given here.
Assays:
Format in all cases: in vivo, mouse
Active Caspase-3 = assay: Anti-active caspase-3 immunofluorescence
Procedure: (§1) Tissue-mounted slides were processed for fluorescence microscopy as follows: Sections were rinsed in coplin jars for 45 minutes at room temperature (RT) in three changes of PBS. Sections were then incubated at RT for 30 minutes in a blocking permeabilization solution made of 5% normal goat serum (NGS), 5% normal rabbit serum (NRS) or 5% BlokHen II (Ayes Labs, Inc., Tigard, Oreg.), 0.05% Triton X-100 and PBS. Subsequently, the blocking solution was tipped off and the slides were rinsed in PBS for 2 minutes. […]

[1] = tested on: Phosphorylated TDP-43 aggregates; assay: TDP-43 immunofluorescence; set-up: key to Phosphorylated TDP-43 aggregates: − = not present; + = present; conditions: for Phosphorylated TDP-43 aggregates: SG-fed
Procedure: Tissue-mounted slides were processed for fluorescence microscopy as follows: Sections were rinsed in coplin jars for 45 minutes at room temperature (RT) in three changes of PBS. Sections were then incubated at RT for 30 minutes in a blocking permeabilization solution made of 5% normal goat serum (NGS), 5% normal rabbit serum (NRS) or 5% BlokHen II (Ayes Labs, Inc., Tigard, Oreg.), 0.05% Triton X-100 and PBS. Subsequently, the blocking solution was tipped off and the slides were rinsed in PBS for 2 minutes. Sections were then incubated overnight in a humidified chamber at 4° C. with a PBS buffered solution that contained 1% NGS or 1% NRS, 1% bovine serum albumin (BSA) and one of the following primary antibodies: (a) rabbit anti-human/mouse ATF-3 (H-90) IgG (polyclonal, 1:500; Santa Cruz Biotechnology, Inc., Santa Cruz, Calif.), (b) anti-activated caspase-3 IgG (monoclonal, 1:250; Chemicon International, Temecula, Calif.) (see FIG. 9), (c) goat antihuman/mouse choline acetyl transferase (ChAT) IgG (polyclonal, 1:100; Chemicon International, Temecula, Calif.) (see FIG. 6), (d) rabbit anti-mouse glial fibrillary acidic protein IgG (polyclonal, 1:250; GeneTex Inc., San Antonio, Tex.) (see FIG. 7), (e) rabbit antihuman/mouse ionized calcium binding adaptor molecule 1 (IBA-1) IgG (polyclonal, 1:500; Wako Pure Chemical Industries, Ltd, Richmond, Va.), (f) mouse anti-human/mouse clone AT8 PHF-1 Tau (monoclonal, 1:200; Pierce Biotechnology Inc., Rockford, Ill.), (g) rabbit anti-human/mouse TAR DNA-binding protein 43 (TDP43) (1:100; ProteinTech Group Inc., Chicago, Ill.) (See FIG. 14), (h) chicken anti-human/mouse β-tubulin 3 (TuJ1 antigen) (polyclonal, 1:100, Ayes Labs, Inc., Tigard, Oreg.), (i) rabbit anti-mouse tyrosine hydroxylase (polyclonal, 1:500, Chemicon International, Temecula, Calif. or polyclonal 1:1000, Affinity BioReagents, Golden, Colo.) (FIG. 10), (j) rabbit anti human/mouse anti-pJunscr73 IgG (polyclonal, 1:200; Chemicon International, Temecula, Calif.), (k) rabbit anti human/mouse anti-HSP-70 IgG (polyclonal, 1:200; Chemicon International, Temecula, Calif.), or (1) rabbit anti human/mouse anti-HSP-25 IgG (polyclonal, 1:100; Chemicon International, Temecula, Calif.). In each experiment, additional slides were incubated with the primary antibody and the secondary antibody omitted or with secondary antibody and primary antibody omitted to test for nonspecific staining. Where appropriate, positive control slides (Alzheimer's disease patient entorhinal cortex, obtained from Drs. Claudia Schwab and Patrick McGeer of the Kinsmen Laboratory, University of British Columbia, Vancouver, BC, Canada) were also processed as above for comparison. […]

[2] = tested on: Activating transcription factor-3; assay: Anti-ATF-3 immunofluorescence; conditions: for Anti-ATF-3, change: SG-fed vs control
Procedure: as §1

Cytochrome c oxidase = Cytochrome c oxidase histochemistry; conditions: SG-fed vs control
Procedure: Tissue-mounted slides were processed for […] in a manner adapted from (Seligman et al., J. Cell. Biol. 1968; 38: 1-14) and Wong-Riley, (1979), Brain Res. 171, 11-28. Sections were rinsed in coplin jars for 15 minutes at RT in three changes of PBS and subsequently incubated with a media comprised of 50 mg of 3,3′-diaminobenzidine tetrahydrochloride (DAB) (DAB substrate system, Vector Laboratories, Burlingame, Calif., USA), 90 mL 0.1M phosphate buffer, 20 mg cytochrome c (type III, Sigma-Aldrich Co., Oakville, ON, Canada), and 4 g of sucrose in a dish submerged in a water bath maintained at 37° C. in the dark for 2 hours. The sections were monitored closely for the brown reaction product to appear within the tissue. Once a medium-brown color was achieved, slides were removed from the incubation media and rinsed for 15 minutes in three changes of PBS to stop the reaction. This was followed with a 2 minutes rinse in distilled water to remove residue from the slides. The slides were dried under a fume hood and cover-slipped with Entellen (Merck, Darmstadt, Germany).
The numbers of immunoreactive somata or inclusions were counted across the ventral horn of the spinal cord, across brain hemispheres, or per dorsal or ventral root with the 40× objective lens in a 600 μm/600 μm area within region perimeters defined by a mouse brain atlas (2001). For each animal, eight cross-sections per spinal cord or brain region were studied. […] For quantification of the level of mitochondrial activity (cytochrome c oxidase labelling) in the lumbar spinal cord or tyrosine hydroxylase immunoreactivity in the substantia nigra pars compacta and striatal sections, images captured using the Motic B5 Professional Series 3.0 microscope (Motic Instruments Inc., Richmond, ON) and analyzed using Motic B5 Professional, Motic Images Advanced 3.0 (Motic Instruments Inc., Richmond, ON) were scanned into a TIFF format file and analysed using the NIH Image J 1.37 software to measure density levels of antibody labelling. […]

[3] = SG-fed group over time (35 to 52 wk)

Q: Which results are given for `CC[C@H](/C=C/[C@@H](C)[C@H]1CC[C@H]2[C@@H]3CC=C4C[C@@H](O[C@@H]5O[C@H](CO)[C@@H](O)[C@H](O)[C@H]5O)CC[C@]4(C)[C@H]3CC[C@]12C)C(C)C` [SG, Stigmasterol β-D-Glucopyranoside]?
A: Apoptotic cells over time (Active Caspase-3; [3]): Apoptotic cells (SG-fed group over time) (ns); Anti-active caspase 3 immunoreactive cells (Active Caspase-3; SG-fed vs control, Time-point 2 (52 wk)): did not reach significance and (ns); Phosphorylated TDP-43 aggregates ([1]; Time-point 1 (35 wk)): No abnormal translocation of TDP-43 was observed and −; Phosphorylated TDP-43 aggregates ([1]; Time-point 2 (52 wk)): +; TDP-43 pathology, incidence in SG-fed group ([1]; Time-point 2 (52 wk), lumbar spinal cord): Two of eight and 2/8; Pathologic phosphorylated TDP-43-containing aggregates, quantification ([1]; lumbar spinal cord, SG-fed animals): increased; Anti-ATF-3 immunoreactive cells over time, change [2, 3]: Anti-ATF-3 immunoreactive cells (SG-fed group over time): −48%***; Anti-ATF-3, change ([2]; Time-point 1 (35 wk)): Anti-ATF-3: +242% ***; Anti-ATF-3, change ([2]; Time-point 2 (52 wk)): Anti-ATF-3: +101%**; Cytochrome c oxidase activity (Cytochrome c oxidase; Time-point 1 (35 wk)): (ns); Cytochrome c oxidase activity (Cytochrome c oxidase; Time-point 2 (52 wk)): (ns); Cytochrome c oxidase activity, difference between groups (Cytochrome c oxidase; at 35 or 52 weeks): no significant differences

Source: US9573972B2, “Nurotoxic sterol glycosides” (priority 2008, dated 2017)
